Patent US10876058B2, “Method for prevention of biodeterioration of fuels” (priority 2013, dated 2020)
Residues, ends and D or L forms follow the SMILES beside them. No end group written: not given here. *: point of attachment. βNA = c1ccc2cc(N*)ccc2c1

Experiments:
Pseudomonas = test: Antimicrobial peptide growth inhibition, Pseudomonas (FIG. 7); format: cell-based; conditions: absence of fuel
Procedure: (§1) Protegrin-1 and Magainin-2 antimicrobial peptides were added individually to the fuel phase and the aqueous (minimal media M9, Bushnell-Haas, or water) phase of 1:1 fuel-growth media mixtures containing environmental bacteria (E. coli, Bacillus, and Pseudomonas) at concentrations ranging from 1 to 1×10^9 cells/mL. Magainin 1 and 2 were obtained from Sigma-Aldrich (St. Louis, Mo.). Protegrin-1 was obtained from AnaSpec (Fremont, Calif.) or produced from a transgenic construct containing a fusion between green fluorescent protein (“GFP”) and the Protegrin-1 coding gene. The GFP-Protegrin fusion was purified by affinity chromatography and Protegrin cleaved from the fusion for use, as pure, or as a fusion in the bioassays.
(§2) The antimicrobial peptides were added at the following concentrations: 0 μg/mL, 1 μg/mL, 2.5 μg/mL, 5 μg/mL, 10 μg/mL, 20 μg/mL, 50 μg/mL, 75 μg/mL, 100 μg/mL, and 125 μg/mL in the presence and absence of fuel. Experiments using minimal media with bacteria in the presence of fuel were designed to measure the effect of fuel in combination with the antimicrobial peptide control. Control experiments contained glycerol instead of fuel as the energy source.
(§3) The antimicrobial effect of the peptides was measured every 24 hours for four days after inoculation by measuring growth through absorbance readings (OD600), DNA quantitation through qPCR, and colony counting techniques.

E. coli = test: Antimicrobial peptide growth inhibition, E. coli (FIG. 6); format: cell-based; conditions: absence of fuel
Procedure: as §1, §2, §3

[1] = Partition from fuel into the aqueous phase; format: physicochemical; conditions: added to fuel (aqueous and fuel phase)
[2] = tested on: environmental bacteria (E. coli, Bacillus, and Pseudomonas); test: Antimicrobial peptide growth inhibition in 1:1 fuel-growth media mixtures; format: cell-based; conditions: for bacteria growth after addition to fuel: added to fuel (aqueous and fuel phase)
Procedure: as §1, §2, §3

[3] = tested on: microbial growth in the aqueous phase; test: Treatment solution administered to jet fuel, microbial growth in the aqueous phase (FIG. 12); format: cell-based; conditions: 80 μg/mL final in jet fuel; stock 25 mg/mL in absolute ethanol, DiEGME or water; initial and days one to three (FIG. 12)
Procedure: Treatment solutions were prepared, as described above, with 25 mg/mL efflux pump inhibitor in various solvents, including absolute ethanol, DiEGME, and water. The treatment solutions were administrated to jet fuel at a final concentration in fuel of 0 μg/mL, 40 μg/mL, and 80 μg/mL. FIG. 12 illustrates results of the 80 μg/mL treatment on initial measured microbial growth in the aqueous phase as well as microbial growth after one, two, and three days.

Pseudomonas aeruginosa = test: Efflux pump blocker growth inhibition, Pseudomonas aeruginosa (FIG. 10); format: cell-based; conditions: fuel present (FIG. 10)
Procedure: (§4) C-capped dipeptide efflux pump blocker, Phe-Arg β-naphthylamide dihydrochloride (MC-207,110) (Sigma Aldrich) was added to the fuel phase and the aqueous (minimal media M9, Bushnell-Haas, or water) phase of 1:1 fuel-minimal media mixtures containing environmental bacteria (Pseudomonas, Acinetobacter, Marinobacter, and Dietzia) at concentrations ranging from 1 to 1×10^9 cells/mL. Phe-Arg β-naphthylamide dihydrochloride was added to the fuel at concentrations of 0 μg/mL, 20 μg/mL, 40 μg/mL, 60 μg/mL, 80 μg/mL, and 100 μg/mL. Control experiments were performed by adding 0 μg/mL to 120 μg/mL of Phe-Arg β-naphthylamide to minimal media containing bacteria and glycerol as the energy source, but not fuel.
(§5) The antimicrobial effect of the efflux pump blocker was established daily by measuring growth through absorbance readings (OD600), DNA quantitation through qPCR, and colony counting techniques.

[4] = tested on: environmental bacteria (Pseudomonas, Acinetobacter, Marinobacter, and Dietzia); test: Efflux pump blocker growth inhibition in 1:1 fuel-minimal media mixtures; format: cell-based; conditions: for bacterial growth inhibition: fuel present (FIGS. 8 and 10)
Procedure: as §4, §5

Acinetobacter venetianus = test: Efflux pump blocker growth inhibition, Acinetobacter venetianus (FIG. 10); format: cell-based; conditions: fuel present (FIG. 10)
Procedure: as §4, §5

[5] = Stability in the presence of fuel; format: physicochemical; conditions: activity was preserved
From the text: Additional experimental results (see FIG. 10) confirm that the growth inhibition effect and the inactivity of efflux pump were effective for other bacteria, including Pseudomonas aeruginosa and Acinetobacter venetianus. The c-capped dipeptides were stable in the presence of fuel and activity was preserved.

## Protegrin-1 (RGGRLCYCRRRFCVCVGR; ends and bridges not checked; cysteine pairing not given here; UniProt P32194 131-148, looked up) [18 amino acid cysteine-rich β-sheet antimicrobial peptide; from AnaSpec or cleaved from a GFP-Protegrin fusion]
Pseudomonas
  concentration required to completely inhibit growth: 5 µg/mL
E. coli
  concentration required to completely inhibit growth: 5 µg/mL
[1]
  partition between fuel and aqueous phase: partitioned into the aqueous phase
[2]
  bacteria growth after addition to fuel: inhibited bacteria growth
[2]; peptide added directly to the fuel phase
  concentration that prevented microbial growth: less than or equal to 1 μg/mL

## Cl.Cl.N=C(N)NCCC[C@H](NC(=O)[C@@H](N)Cc1ccccc1)C(=O)Nc1ccc2ccccc2c1 [c-capped dipeptide, Phe-Arg β-naphthylamide dihydrochloride] (H-Phe-Arg-βNA)
[3]
  microbial growth in the aqueous phase: significantly decreased microbial growth
Pseudomonas aeruginosa
  growth inhibition effect and inactivity of efflux pump: effective
[4]; 20 μg/mL
  bacterial growth inhibition: Partial bacterial growth inhibition
[4]; 40 μg/mL
  bacterial growth inhibition: complete growth inhibition
[4]; 60 μg/mL
  bacterial growth inhibition: complete growth inhibition
[4]; 80 μg/mL
  bacterial growth inhibition: complete growth inhibition
[4]; 100 μg/mL
  bacterial growth inhibition: complete growth inhibition
[4]; fuel not present (glycerol control), concentrations as high as 100 μg/mL (FIG. 9)
  inhibitory effect on bacterial growth: not observed
[4]; fuel present, up to 17 days (FIG. 11)
  concentration giving complete growth inhibition for up to 17 days: greater than 80 μg/mL
[4]; low concentration (less than 20 μg/mL) every 3 to 4 days
  microbial growth and proliferation under periodic administration: prevented microbial growth and proliferation
Acinetobacter venetianus
  growth inhibition effect and inactivity of efflux pump: effective
[5]
  stability in the presence of fuel: stable

## Magainin-2
[1]
  partition between fuel and aqueous phase: partitioned into the aqueous phase
[2]; absence of fuel (FIG. 4)
  concentration required to completely inhibit bacteria growth: 125 µg/mL
[2]
  bacteria growth after addition to fuel: inhibited bacteria growth
